Legend:
[1] = biological target: T1, CDK9 kinase (Homo sapiens, UniProt P50750); assay: Inhibitory effect on the kinase activity of CDK9 in vitro; assay type: biochemical; details: CDK9 kinase (Millipore), CTD3 substrate polypeptide, Caliper
T1 construct: purchased Millipore 14-685M
Procedure: The detection of the inhibitory effect of the compounds of the present disclosure on the kinase activity of CDK9 in vitro was determined by the following method:
Compound preparation: The compound was accurately weighed and dissolved in DMSO (Sigma, D2650) to a concentration of 100 um for later use. The compound was diluted to 5-fold of a desired highest concentration, and diluted 4-fold into 6 concentration gradients, allowing the final concentration of the compound in the reaction system to be 100, 25, 6.25, 1.56, 0.39, 0.098 nM. 5 ul was taken to a 384-well plate (Corning, 4512).
Detection: Data was collected by Caliper.
Calculation: The IC50 value was calculated by Graphpad prism 5.0 software according to the concentration of the compound and the corresponding signal value.

[2] = system: Mv4-11 cells; assay: Inhibition of the proliferation of Mv4-11 cells (CCK8); assay type: cell-based; details: Mv4-11 cell proliferation, CCK8 OD450
Procedure: The inhibition effect of the compounds of the present disclosure on the proliferation of Mv4-11 cells (ATCC:CRL-9591TM) in vitro was determined by the following method:
Cell inoculation: Mv4-11 cells with good growing state in logarithmic growth phase were inoculated into a 96-well plate at 20000 cells per well and 50 uL, and cultured at 37° C. and under 5% CO2 condition for 2-4 h. Administration: The compound was diluted with 1640 medium containing 10% FBS and 1% PS: 0.4 uL of the compound with an initial concentration of 1 mM was placed in a dilution plate, each added with 199.6 uL of the above culture medium, and gradiently diluted 4-fold, so that the final concentration in the added cell was 1000, 250, 62.5, 15.625, 3.91, 0.98, 0.24, 0.06 nM. 50 μL of the medium containing the compound was sequentially added, and it was placed in a 37° C., 5% CO2 cell incubator for 48 hours.
Detection: 10 uL CCK8 (Dojindo, CK 04) solution was added to each well, incubated in 37° C. 5% CO2 cell incubator for 2 hours, and then the OD450 value was read by Synegry H1 (BioTek) multimode microplate reader.
Calculation: The IC50 value was calculated using Graphpad prism 5.0 software according to the concentration of the compound and the corresponding signal value.

[3] = system: phosphorylation of RNA pol II Ser2 in Mv4-11 cells; assay: Inhibition of phosphorylation of RNA pol II Ser2 in Mv4-11 cells (SDS-PAGE, FIG. 1); assay type: cell-based; details: 6 hours, different concentrations
Procedure: The inhibition effect of the compounds of the present disclosure on the in vitro Mv4-11 cell RNA pol II Ser 2 was determined by the following method:
Cell inoculation: Mv4-11 cells with good growing state in logarithmic growth phase were inoculated into a six-well plate with 2*10^5 cells/well, and cultured overnight at 37° C. and under 5% CO2 condition.
Administration: The compound was diluted with 2 mL of 1640 medium containing 10% FBS and 1% PS. 2 ul of the medium containing the compound was added to the overnight cultured cells, and it was placed in a 37° C., 5% CO2 cell incubator for 6 hours.
Protein extraction and quantification: Cell suspension was collected and centrifuged at 1000 g for 5 min, the cell culturing medium was discarded, and PBS was added for resuspension and centrifugation; it was repeated three times, the residual liquid was sucked dry, 80 uL cell lysate was added per well, it was placed to ice, shaked for 10 min on a shaker, centrifuged at 12000 g for 5 min, and the supernatant, ie, the total protein solution, was collected; the protein concentration was tested by BCA.

T1 sequence (P50750 whole entry): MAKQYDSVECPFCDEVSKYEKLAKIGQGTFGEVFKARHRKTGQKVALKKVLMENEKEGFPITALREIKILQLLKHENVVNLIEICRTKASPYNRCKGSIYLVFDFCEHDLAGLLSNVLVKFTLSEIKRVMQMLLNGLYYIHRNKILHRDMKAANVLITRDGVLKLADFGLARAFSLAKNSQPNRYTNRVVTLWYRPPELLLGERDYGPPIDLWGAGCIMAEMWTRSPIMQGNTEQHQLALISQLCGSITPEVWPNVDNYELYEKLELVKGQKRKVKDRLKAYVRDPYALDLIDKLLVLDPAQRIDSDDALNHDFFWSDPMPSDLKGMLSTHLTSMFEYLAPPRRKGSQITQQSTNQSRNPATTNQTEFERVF
T1 sequence (O60563 whole entry partner): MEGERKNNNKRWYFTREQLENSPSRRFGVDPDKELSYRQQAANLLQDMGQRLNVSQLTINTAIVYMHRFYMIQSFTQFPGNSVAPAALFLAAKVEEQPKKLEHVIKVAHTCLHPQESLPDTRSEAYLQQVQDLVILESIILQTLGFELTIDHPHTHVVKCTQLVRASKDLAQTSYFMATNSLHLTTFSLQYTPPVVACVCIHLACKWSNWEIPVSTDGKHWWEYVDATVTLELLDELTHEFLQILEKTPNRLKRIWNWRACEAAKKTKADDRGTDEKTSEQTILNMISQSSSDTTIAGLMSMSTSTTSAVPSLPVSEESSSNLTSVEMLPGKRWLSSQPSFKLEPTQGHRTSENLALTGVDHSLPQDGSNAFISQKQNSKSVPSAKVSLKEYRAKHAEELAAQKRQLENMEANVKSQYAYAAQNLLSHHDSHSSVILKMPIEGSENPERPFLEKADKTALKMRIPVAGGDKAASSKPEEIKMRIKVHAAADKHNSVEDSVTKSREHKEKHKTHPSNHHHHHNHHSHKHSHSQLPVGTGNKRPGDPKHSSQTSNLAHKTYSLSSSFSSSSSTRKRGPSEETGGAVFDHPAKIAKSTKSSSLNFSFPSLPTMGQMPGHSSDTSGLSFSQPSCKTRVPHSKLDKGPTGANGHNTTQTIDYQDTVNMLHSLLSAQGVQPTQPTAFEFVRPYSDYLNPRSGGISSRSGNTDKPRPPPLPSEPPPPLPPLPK

| SMILES | IC50 [1] [nM] | IC50 ([2]; Homo sapiens, MV4-11, 48 h) [nM] | inhibitory effect on the phosphorylation of RNA pol II Ser 2 in Mv4-11 cells [3] | IC50 ([2]; 48 hours) [nM] |
| --- | --- | --- | --- | --- |
| CC(=O)N1C[C@H]2CC(C(=O)Nc3cc(-c4cc(C#N)n5c4CC(C)(C)C5)c(Cl)cn3)C[C@H]2C1 (single isomer, unassigned) [Compound 7-1] | 3.2 | 17.5 | significant inhibitory effect | – |
| Cn1ccc([C@@H]2CCC[C@H](C(=O)Nc3cc(-c4cnn5c4CC(C)(C)C5)c(Cl)cn3)C2)n1 (single isomer, unassigned) [Compound 22-1-1] | 3.2 | 2.8 | significant inhibitory effect | – |
| CNC(=O)C1C[C@@H]2CC(C(=O)Nc3cc(-c4cc(C(N)=O)n5c4CC(C)(C)C5)c(Cl)cn3)C[C@@H]2C1 (single isomer, unassigned) [Compound 26-1] | 2.9 | 4.1 | – | – |
| CNC(=O)C1C[C@@H]2CC(C(=O)Nc3cc(-c4cc(C(N)=O)n5c4CC(C)(C)C5)c(Cl)cn3)C[C@@H]2C1 (single isomer, unassigned) [Compound 26-2] | 3.5 | – | – | 5.1 |
| CC(=O)N1C[C@H]2CC(C(=O)Nc3cc(-c4cc(C(N)=O)n5c4CC(C)(C)C5)ccn3)C[C@H]2C1 (single isomer, unassigned) [Compound 32-1] | 4.8 | – | – | 3.5 |
| CC(=O)N1C[C@H]2CC(C(=O)Nc3cc(-c4cc(C(N)=O)n5c4CC(C)(C)C5)ccn3)C[C@H]2C1 (single isomer, unassigned) [Compound 32-2] | 2.8 | – | – | 0.9 |
| CC(=O)N[C@@H]1CCC[C@H](C(=O)Nc2cc(-c3cc(C#N)n4c3CC(C)(C)C4)c(Cl)cn2)C1 [Compound 1, (1S,3R)-3-acetamido-N-(5-chloro-4-(5-cyano-2,2-dimethyl-2,3-dihydro-1H-pyrrolizin-7-yl)pyridin-2-yl)cyclohexane-1-carboxamide] | 2.1 | 1.6 | – | – |
| CC(=O)N[C@@H]1CCC[C@H](C(=O)Nc2cc(-c3cc(C(N)=O)n4c3CC(C)(C)C4)c(Cl)cn2)C1 [Compound 2, 7-(2-((1S,3R)-3-acetylaminocyclohexane-1-carboxamido)-5-chloropyridin-4-yl)-2,2-dimethyl-2,3-dihydro-1H-pyrrolizine-5-carboxamide] | 2.8 | 27.6 | – | – |
| C[C@H](N)C(=O)N1C[C@H]2CC(C(=O)Nc3cc(-c4cnn5c4CC(C)(C)C5)c(Cl)cn3)C[C@H]2C1 (stereo partly drawn) [Compound 5, (3aR,6aS)-2-(L-alanyl)-N-(5-chloro-4-(5,5-dimethyl-5,6-dihydro-4H-pyrrolo[1,2-b]pyrazol-3-yl)pyridin-2-yl)octahydrocyclopenta[c]pyrrole-5-carboxamide] | 2.8 | 7.6 | – | – |
| C[C@@H](N)C(=O)N1C[C@H]2CC(C(=O)Nc3cc(-c4cnn5c4CC(C)(C)C5)c(Cl)cn3)C[C@H]2C1 (stereo partly drawn) [Compound 6, (3aR,6aS)-2-(D-alanyl)-N-(5-chloro-4-(5,5-dimethyl-5,6-dihydro-4H-pyrrolo[1,2-b]pyrazol-3-yl)pyridin-2-yl)octahydrocyclopenta[c]pyrrole-5-carboxamide] | 3.7 | 5.4 | – | – |
| CC(=O)N[C@@H]1CCC[C@H](C(=O)Nc2cc(-c3cc(C(N)=O)n4c3CC(C)(C)C4)ccn2)C1 [Compound 12] | 2.9 | 26 | significant inhibitory effect | – |
| CC1(C)Cc2c(-c3cc(NC(=O)[C@@H]4C[C@H]5C[C@H](C(N)=O)C[C@H]5C4)ncc3Cl)cc(C(N)=O)n2C1 [Compound 15-1, (2s,3aR,5r,6aS)-N-(4-(5-carbamoyl-2,2-dimethyl-2,3-dihydro-1H-pyrrolizin-7-yl)-5-chloropyridin-2-yl)octahydropentalene-2,5-dicarboxamide] | 10.1 | 7.9 | – | – |
| CC1(C)Cc2c(-c3cc(NC(=O)[C@H]4C[C@H]5C[C@@H](C(N)=O)C[C@H]5C4)ncc3Cl)cc(C(N)=O)n2C1 [Compound 15-2, (2r,3aR,5s,6aS)-N-(4-(5-carbamoyl-2,2-dimethyl-2,3-dihydro-1H-pyrrolizin-7-yl)-5-chloropyridin-2-yl)octahydropentalene-2,5-dicarboxamide] | 3.7 | 14.3 | – | – |
| CC(=O)N[C@@H]1CCC[C@H](C(=O)Nc2cc(-c3cc(C(N)=O)c4n3CC(C)(C)C4)c(Cl)cn2)C1 [Compound 17, 5-(2-((1S,3R)-3-acetylaminocyclohexane-1-carboxamido)-5-chloropyridin-4-yl)-2,2-dimethyl-2,3-dihydro-1H-pyrrolizine-7-carboxamide] | 4.9 | 36.1 | – | – |
| CC(=O)N[C@@H]1CCC[C@H](C(=O)Nc2cc(-c3cc(C#N)c4n3CC(C)(C)C4)c(F)cn2)C1 [Compound 27, (1S,3R)-3-acetamido-N-(4-(7-cyano-2,2-dimethyl-2,3-dihydro-1H-pyrrolizin-5-yl)-5-fluoropyridin-2-yl)cyclohexane-1-carboxamide] | 2.2 | 3.5 | – | – |
| CC(=O)N[C@@H]1CCC[C@H](C(=O)Nc2cc(-c3cnn4c3CC(C)(C)C4)c(C(F)(F)F)cn2)C1 [Compound 30, (1S,3R)-3-acetamido-N-(4-(5,5-dimethyl-5,6-dihydro-4H-pyrrolo[1,2-b]pyrazol-3-yl)-5-(trifluoromethyl)pyridin-2-yl)cyclohexane-1-carboxamide] | 6.3 | 15.3 | – | – |
| CC(=O)N[C@@H]1CCC[C@H](C(=O)Nc2cc(-c3cc(C(N)=O)c4n3CC(C)(C)C4)c(F)cn2)C1 [Compound 31, 5-(2-((1S,3R)-3-acetylaminocyclohexane-1-carboxamido)-5-fluoropyridin-4-yl)-2,2-dimethyl-2,3-dihydro-1H-pyrrolizine-7-carboxamide] | 4.8 | 9.2 | – | – |
| CC(=O)N[C@H]1C[C@@H]2C[C@@H](C(=O)Nc3cc(-c4cc(C(N)=O)n5c4CC(C)(C)C5)c(F)cn3)C[C@@H]2C1 [Compound 34-1, 7-(2-((2r,3aR,5s,6aS)-5-acetylaminooctahydropentalene-2-carboxamido)-5-fluoropyridin-4-yl)-2,2-dimethyl-2,3-dihydro-1H-pyrrolizine-5-carboxamide] | 4.9 | 2.3 | – | – |
